15 compounds from US20240122180A1, “FUNGICIDAL HALOMETHYL KETONES AND HYDRATES AND THEIR MIXTURES” (FMC Corporation, priority 2020, published 2024) can be followed below.

Structures are written as SMILES.

Holding throughout (type): in vivo
The test system of experiment [1] is Zymoseptoria tritici (the causal agent of wheat leaf blotch). The experiment in a line: Test D: preventive spray on wheat seedlings, disease rating (100 = 100% control; * 50 ppm, ** 10 ppm, *** 250 ppm). As to conditions: Zymoseptoria tritici; 250 ppm test suspension; wheat seedlings; 100 = 100% disease control. An excerpt: (§1) General protocol for preparing test suspensions for Tests A-E: the test compounds were first dissolved in acetone in an amount equal to 3% of the final volume and then suspended at the desired concentration (in ppm) in acetone and purified water (50/50 mix by volume) containing 250 ppm of the surfactant […] (polyhydric alcohol esters). The resulting test suspensions were then used in Tests A-E.
The test solution was sprayed to the point of run-off on wheat seedlings. The following day the seedlings were inoculated with a spore suspension of Zymoseptoria tritici (the causal agent of wheat leaf blotch) and incubated in a saturated atmosphere at 24° C. for 48 h, and then moved to a growth chamber at 20° C. for 17 days, after which time disease ratings were made.
(§2) Results for Tests A-E are given in Table A. In the Table, a rating of 100 indicates 100% disease control and a rating of 0 indicates no disease control (relative to the controls). An asterisk “*” or a double asterisk “**” or a triple asterisk “***” next to the rating value indicates a 50 ppm, 10 ppm and 250 ppm test suspension was used, respectively. A dash (-) indicates the compound was not tested.

In experiment [2] the test system is Blumeria graminis f. sp. tritici (the causal agent of wheat powdery mildew). The experiment in a line: Test E: preventive spray on wheat seedlings, visual disease rating (100 = 100% control; * 50 ppm, ** 10 ppm, *** 250 ppm). As to conditions: Blumeria graminis; 50 ppm test suspension; wheat seedlings; 100 = 100% disease control.
Source text: as §1
The test suspension was sprayed to the point of run-off on wheat seedlings. The following day the seedlings were inoculated with a spore dust of Blumeria graminis f. sp. tritici, (also known as Erysiphe graminis f. sp. tritici, the causal agent of wheat powdery mildew) and incubated in a growth chamber at 20° C. for 8 days, after which time visual disease ratings were made.
as §2

For experiment [3], the system named is Puccinia recondita f. sp. tritici (the causal agent of wheat leaf rust). The experiment in a line: Test B: preventive spray on wheat seedlings, disease rating (100 = 100% control; * 50 ppm, ** 10 ppm, *** 250 ppm). As to conditions: Puccinia recondita; 50 ppm test suspension; wheat seedlings; 100 = 100% disease control. In a few lines:
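Preventive test: Puccinia recondita f. sp. tritici spores were inoculated one day after run-off spraying of wheat seedlings with test suspension (acetone/water 50/50, 250 ppm PEG400). After 24 h in saturated air and 6 days in a growth chamber, both at 20° C, control was scored 0–100 versus untreated plants.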

For experiment [4], the system named is Phakopsora pachyrhizi (the causal agent of Asian soybean rust). The experiment in a line: Test F: Compound 32 or 64 alone and in mixtures on soybean seedlings, observed (Obsd) and Colby expected (Exp) disease control. As to conditions: for pest or weed control at 10.165 ppm: prothioconazole 10.165 ppm alone; for pest or weed control at 16.339 ppm: prothioconazole 16.339 ppm alone; for pest or weed control at 37.333 ppm: cyproconazole 37.333 ppm alone; for pest or weed control at 64.883 ppm: cyproconazole 64.883 ppm alone; for pest or weed control at 20.511 ppm: trifloxystrobin 20.511 ppm alone; for pest or weed control at 35.31 ppm: trifloxystrobin 35.310 ppm alone; for pest or weed control at 544.265 ppm: flutriafol 544.265 ppm alone; for pest or weed control at 1124.02 ppm: flutriafol 1124.021 ppm alone; for pest or weed control at 486.921 ppm: tebuconazole 486.921 ppm alone; for pest or weed control at 841.166 ppm: tebuconazole 841.166 ppm alone; for pest or weed control at 29.673 ppm: metominostrobin 29.673 ppm alone; for pest or weed control at 86.003 ppm: metominostrobin 86.003 ppm alone; for pest or weed control at 242.823 ppm: fenpropimorph 242.823 ppm alone; for pest or weed control at 458.587 ppm: fenpropimorph 458.587 ppm alone; for pest or weed control at 78.393 ppm: fenpropidin 78.393 ppm alone; for pest or weed control at 161.74 ppm: fenpropidin 161.740 ppm alone; for pest or weed control at 45.86 ppm: pyraclostrobin 45.860 ppm alone; for pest or weed control at 137.503 ppm: pyraclostrobin 137.503 ppm alone. The text has this: The general protocol for preparing test compositions for Test F was as follows: Compound 32, Compound 64, azoxystrobin, benzovindiflupyr, bixafen, chlorothalonil, cyproconazole, epoxiconazole, fenpropidin, fenpropimorph, fluindapyr, flutriafol, fluxapyroxad, metominostrobin, picoxystrobin, prothioconazole, pydiflumetofen, pyraclostrobin, tebuconazole and trifloxystrobin were obtained as unformulated, technical-grade materials. Copper hydroxide and mancozeb was obtained as a formulated product marketed under the trademarks KOCIDE 3000 and MANZATE, respectively. Unformulated materials were first dissolved in acetone and then suspended at the desired concentration (in ppm) in acetone and purified water (50/50 mix by volume) containing 250 ppm of the surfactant Trem® 014 (polyhydric alcohol esters). Formulated materials were dispersed in sufficient water to give the desired concentration, and neither organic solvent nor surfactant was added to the suspension. The resulting test mixtures were then used in Test F. The tests were run on four individual plants and the results reported as the mean average of the four plants.
The presence of a synergistic effect between two active ingredients was established with the aid of the Colby equation (see Colby, S. R. “Calculating Synergistic and Antagonistic Responses of Herbicide Combinations”, Weeds, (1967), 15, 20-22):
Using the method of Colby, the presence of a synergistic interaction between two active ingredients is established by first calculating the predicted activity, p, of the mixture based on activities of the two components applied alone. If p is lower than the experimentally established effect, synergism has occurred. In the equation above, A is the fungicidal activity in percentage control of one component applied alone at rate x. The B term is the fungicidal activity in percentage control of the second component applied at rate y. The equation estimates p, the expected fungicidal activity of the mixture of A at rate x with B at rate y if their effects are strictly additive and no interaction has occurred.
The test mixture was sprayed to the point of run-off on soybean seedlings. The following day the seedlings were inoculated with a spore suspension of Phakopsora pachyrhizi (the causal agent of Asian soybean rust) and incubated in a saturated atmosphere at 22° C. for 24 h and then moved to a growth chamber at 22° C. for 8 days, after which time visual disease ratings were made.
Results for Test F are given in Tables B-1 through I-1 for Compound 32 and Tables B-2 through I-2 for Compound 64. Each table corresponds to a set of evaluations performed together at the same time. In each table, a rating of 100 indicates 100% disease control and a rating of 0 indicates no disease control (relative to the controls). Columns labeled “Obsd” indicate the average of results observed from test run on four individual plants. Columns labeled “Exp” indicate the expected value for each treatment mixture using the Colby equation.

[5] abbreviates: Phakopsora pachyrhizi, Table G-1.
Setting [6] is: Phakopsora pachyrhizi, Table G-2.
Where [7] appears, read: Phakopsora pachyrhizi, Table E-2.
Where [8] appears, read: Phakopsora pachyrhizi, Table I-1.
Where [9] appears, read: Phakopsora pachyrhizi, Table I-2.
Setting [10] is: Phakopsora pachyrhizi, Table D-1.
[11] abbreviates: Phakopsora pachyrhizi, Table D-2.
[12] abbreviates: Phakopsora pachyrhizi, Table H-1.
The mark [13] stands for this setting: Phakopsora pachyrhizi, Table H-2.

One may read the pest or weed control as the degree to which the test organism was suppressed or injured, in per cent. `CCOC(=O)c1cnn(Cc2ccc(OCC3(C(F)(F)F)OCCO3)cn2)c1` [compound 124] returned a pest or weed control at 250 ppm in experiment [1] of 92%. The figures for the pest or weed control at 50 ppm in experiment [2] and in experiment [3] were 98% and 0%, respectively.

With `OC(Cc1ccccc1Cl)(Cn1nc[nH]c1=S)C1(Cl)CC1` (stereo not drawn) [prothioconazole], the pest or weed control at 10.165 ppm in experiment [4] (setting [5]) and in experiment [4] (setting [6]) was 7% in each case. Moreover, the pest or weed control at 16.339 ppm in experiment [4] (setting [5]) and in experiment [4] (setting [6]) was 65% in each case.

For the compound `CO/C=C(/C(=O)OC)c1ccccc1COc1cccc(C(F)(F)F)n1` [picoxystrobin], the Obsd disease control is 73% in experiment [4] (picoxystrobin 20.596 ppm alone, Table B-1); 73% in experiment [4] (picoxystrobin 20.596 ppm alone, Table B-2); 75% in experiment [4] (picoxystrobin 33.865 ppm alone, Table B-1); 75% in experiment [4] (picoxystrobin 33.865 ppm alone, Table B-2).

For the compound `CC(C1CC1)C(O)(Cn1cncn1)c1ccc(Cl)cc1` (stereo not drawn) [cyproconazole], the pest or weed control at 37.333 ppm in experiment [4] (setting [7]) and in experiment [4] (Table E-1) was 44% each time. For the same compound, the pest or weed control at 64.883 ppm in experiment [4] (setting [7]) and in experiment [4] (Table E-1) was 68% each time.

Take `CON=C(C(=O)OC)c1ccccc1CON=C(C)c1cccc(C(F)(F)F)c1` [trifloxystrobin]: in experiment [4] (setting [7]), the pest or weed control at 20.511 ppm is 69% and the pest or weed control at 35.31 ppm came out at 86%. In experiment [4] (Table E-1), the pest or weed control at 20.511 ppm stood at 69% and the pest or weed control at 35.31 ppm was 86%.

In the case of `OC(Cn1cncn1)(c1ccc(F)cc1)c1ccccc1F` (stereo not drawn) [flutriafol], the pest or weed control at 544.265 ppm in experiment [4] (setting [8]) and in experiment [4] (setting [9]) was 13% throughout. Besides, the pest or weed control at 1124.02 ppm in experiment [4] (setting [8]) and in experiment [4] (setting [9]) was 52% throughout.

For the compound `CC(C)(C)C(O)(CCc1ccc(Cl)cc1)Cn1cncn1` (stereo not drawn) [tebuconazole], the pest or weed control at 486.921 ppm in experiment [4] (setting [10]) and in experiment [4] (setting [11]) was 30% each time. The pest or weed control at 841.166 ppm in experiment [4] (setting [10]) and in experiment [4] (setting [11]) was 55% each time.

With `CC1CC(C)(C)c2c(F)ccc(NC(=O)c3cn(C)nc3C(F)F)c21` (stereo not drawn) [fluindapyr], the Obsd disease control in experiment [4] (fluindapyr 8.820 ppm alone, Table C-1) was 61%; in experiment [4] (fluindapyr 8.820 ppm alone, Table C-2), 61%; in experiment [4] (fluindapyr 15.230 ppm alone, Table C-1), 79%; in experiment [4] (fluindapyr 15.230 ppm alone, Table C-2), 79%.

For the compound `CNC(=O)/C(=N/OC)c1ccccc1Oc1ccccc1` [metominostrobin], in experiment [4] (setting [12]), the pest or weed control at 29.673 ppm amounted to 13% and the pest or weed control at 86.003 ppm amounted to 37%. Moreover, in experiment [4] (setting [13]), the pest or weed control at 29.673 ppm stood at 13% and the pest or weed control at 86.003 ppm was 37%.

Regarding `CC(Cc1ccc(C(C)(C)C)cc1)CN1C[C@@H](C)O[C@@H](C)C1` (stereo partly drawn) [fenpropimorph], in experiment [4] (setting [10]), the pest or weed control at 242.823 ppm turned out to be 33% and the pest or weed control at 458.587 ppm was 44%. In addition, in experiment [4] (setting [11]), the pest or weed control at 242.823 ppm was 33% and the pest or weed control at 458.587 ppm was 44%.

Turning to `CON(C(=O)c1cn(C)nc1C(F)F)C(C)Cc1c(Cl)cc(Cl)cc1Cl` (stereo not drawn) [pydiflumetofen], the Obsd disease control in experiment [4] (pydiflumetofen 41.364 ppm alone, Table H-1) is on record as 49%; in experiment [4] (pydiflumetofen 41.364 ppm alone, Table H-2), 49%; in experiment [4] (pydiflumetofen 70.950 ppm alone, Table F-1), 0%; in experiment [4] (pydiflumetofen 70.950 ppm alone, Table F-2), 0%; in experiment [4] (pydiflumetofen 128.793 ppm alone, Table H-1) it was 36%; in experiment [4] (pydiflumetofen 128.793 ppm alone, Table H-2), 36%. For the same compound, the Obsd disease control in experiment [4] (pydiflumetofen 135.850 ppm alone, Table F-1) was 73%; in experiment [4] (pydiflumetofen 135.850 ppm alone, Table F-2) it was 73%.

With `Cn1cc(C(=O)Nc2cccc3c2[C@@H]2CC[C@H]3C2=C(Cl)Cl)c(C(F)F)n1` (racemic) [benzovindiflupyr], the Obsd disease control in experiment [4] (benzovindiflupyr 0.606 ppm alone, Table G-1) was 67%; in experiment [4] (benzovindiflupyr 0.606 ppm alone, Table G-2), 67%; in experiment [4] (benzovindiflupyr 0.980 ppm alone, Table G-1) it was 67%; in experiment [4] (benzovindiflupyr 0.980 ppm alone, Table G-2), 67%.

As for `CC(Cc1ccc(C(C)(C)C)cc1)CN1CCCCC1` (stereo not drawn) [fenpropidin], in experiment [4] (setting [8]), the pest or weed control at 78.393 ppm was 45% and the pest or weed control at 161.74 ppm turned out to be 68%. In experiment [4] (setting [9]), the pest or weed control at 78.393 ppm was determined as 45% and the pest or weed control at 161.74 ppm was 68%.

Turning to `COC(=O)N(OC)c1ccccc1COc1ccn(-c2ccc(Cl)cc2)n1` [pyraclostrobin], in experiment [4] (setting [12]), the pest or weed control at 45.86 ppm came to 35% and the pest or weed control at 137.503 ppm was found to be 45%. In addition, in experiment [4] (setting [13]), the pest or weed control at 45.86 ppm turned out to be 35% and the pest or weed control at 137.503 ppm is 45%.

As for `Cn1cc(C(=O)Nc2ccccc2-c2cc(F)c(F)c(F)c2)c(C(F)F)n1` [fluxapyroxad], the Obsd disease control in experiment [4] (fluxapyroxad 2.757 ppm alone, Table C-1) is on record as 19%; in experiment [4] (fluxapyroxad 2.757 ppm alone, Table C-2), 19%; in experiment [4] (fluxapyroxad 4.748 ppm alone, Table C-1), 52%; in experiment [4] (fluxapyroxad 4.748 ppm alone, Table C-2) it was 52%.
